According to patent publication EP0415598A1, “Cosmetic composition” (UNILEVER PLC, priority 1989, dated 1991):

Test system: hair growth
Assay: Rat Hair Growth Test (topical application to clipped skin, cumulative hair weight)
Assay type: in vivo, male albino Wistar rats
Protocol: The effect of compounds on hair growth was assessed using male albino Wistar rats as an animal model. The rats were chosen from as few litters as possible and were each approximately 42 days of age at the start of the test. Each rat was housed individually to prevent licking.
In each comparison, 10 rats were used in each group and hair growth was assessed as follows:
A small patch of normal skin (4cm x 4cm) on the upper back of each rat was clipped at the start and 0.3 ml of a hair growth stimulant composition (or a control) applied topically twice daily and once on Saturdays and Sundays to each clipped area. The concentration of test compound in the composition was chosen from 0.01 to 20% by weight.
In any case, this concentration will lie within the range of from 0.01 to 20% by weight as stipulated above.
Hair was clipped from the area of the patch twice weekly, collected and weighed at each time point over a standard period of 3 months, and cumulative hair weight calculated. […] A positive response, i.e. an increase of at least 10% by weight of hair after 3 months treatment, compared with a control indicates the potential of the test compound to prevent hair loss and/or reverse baldness in human subjects.
In this example, the effect of topical application of N-acetyl glycine is shown. […]

## CC(=O)NCC(=O)O [N-acetyl glycine]
10% (w/v) N-acetyl glycine vs control (distilled water, pH 4.2), after 58 days, statistically significant
  increase in hair growth: 23%
10% (w/v) solution in distilled water adjusted to pH 4.2 with potassium hydroxide, topical, 0.3 ml twice daily, 58 days, control 505.9 ± 103.1, p =0.02 vs control
  Mean Cumulative Hair Weight (mg) ± sd, after 58 days: 622.8 ± 101.11 mg
